Reference: publication PMC3313490 (Current Cancer Drug Targets, 2011)
Read-outs that look alike come from different tables or passages of the source.

Columns and labels:
porcine liver PMPMEase [1] = target: T1, porcine liver PMPMEase (Sus scrofa, UniProt Q29550); conditions: for IC50: PMPMEase 1 μg, 15 min pre-incubation at 37°C, RD-PNB substrate
T1 sequence (Q29550 19-566): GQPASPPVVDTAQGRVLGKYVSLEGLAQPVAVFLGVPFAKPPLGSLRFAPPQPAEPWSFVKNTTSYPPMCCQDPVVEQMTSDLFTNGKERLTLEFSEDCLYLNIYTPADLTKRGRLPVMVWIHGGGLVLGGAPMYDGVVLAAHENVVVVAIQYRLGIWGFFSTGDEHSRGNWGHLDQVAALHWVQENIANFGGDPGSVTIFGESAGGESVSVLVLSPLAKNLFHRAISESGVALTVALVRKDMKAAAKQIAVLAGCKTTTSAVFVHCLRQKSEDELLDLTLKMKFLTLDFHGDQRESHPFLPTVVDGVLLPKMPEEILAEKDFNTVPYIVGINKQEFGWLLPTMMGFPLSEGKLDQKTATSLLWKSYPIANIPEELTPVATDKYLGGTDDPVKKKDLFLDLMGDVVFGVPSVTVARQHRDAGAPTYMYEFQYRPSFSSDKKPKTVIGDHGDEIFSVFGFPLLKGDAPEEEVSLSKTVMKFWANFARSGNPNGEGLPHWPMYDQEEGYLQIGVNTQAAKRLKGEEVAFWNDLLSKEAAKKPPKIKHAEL

porcine liver PMPMEase [2] = target: T1, porcine liver PMPMEase; conditions: for Kobs/[I]: PMPMEase 82.5 μg, pre-incubation 0-30 min, 100-fold dilution, RD-PNB substrate
[3] = system: human neuroblastoma SH-SY5Y cells; format: cell-based; conditions: for EC50: read-out: EC50 cell viability
[4] = system: human neuroblastoma SH-SY5Y cells; assay: Cell degeneration by microscopy images of treated cells; format: cell-based; conditions: 24 h exposure, up to 200 μM

| Compound | IC50 (porcine liver PMPMEase [1]) | Kobs/[I] (porcine liver PMPMEase [2]) | Cell degeneration observed [4] | IC50 fold lower relative to PMSF (porcine liver PMPMEase [1]) | Kobs/[I] fold higher relative to PMSF (porcine liver PMPMEase [2]) | other results |
| --- | --- | --- | --- | --- | --- | --- |
| CCCCCCCCCCSCCS(=O)(=O)F [Compound L-52, Decanylthioethanesulfonyl fluoride] | 0.13 µM | 1800 M⁻¹ s⁻¹ |  |  |  |  |
| O=S(=O)(F)CCSCc1ccccc1 [Compound L-51, Benzylthioethanesulfonyl fluoride] | 0.047 µM | 350 M⁻¹ s⁻¹ |  |  |  | Kobs/[I] fold lower than that for L-28 (porcine liver PMPMEase [2]; relative to L-28): over 5 fold |
| CC(C)=CCC/C(C)=C/CC/C(C)=C/CSCCS(=O)(=O)F [Compound L-28, 2-trans, trans-Farnesylthioethanesulfonyl fluoride] | 0.048 µM | 2000 M⁻¹ s⁻¹ | extensive degeneration | 37 fold | > 330 fold | EC50 ([3]; 24 h exposure, serum-free DMEM/F12): 66.5 µM; EC50 ([3]; 48 h exposure, serum-free DMEM/F12): 24.3 µM; EC50 ([3]; 72 h exposure, serum-free DMEM/F12): 13.6 µM |
| 2-trans-Geranylthioethanesulfonyl fluoride [Compound L-23] |  | 4100 M⁻¹ s⁻¹ | extensive degeneration | 56 fold | over 680 fold | EC50 [3]: 144 µM |
| O=S(=O)(F)Cc1ccccc1 [PMSF, phenylmethylsulfonyl fluoride, reference compound] |  |  | did not show degeneration even at 200 μM |  |  | Effect on viability of cultured cells ([3]; 24 h exposure): no significant effect |
| O=S(=O)(F)CCSc1ccccc1 [Compound L-50, Phenylthioethanesulfonyl fluoride] | 0.066 µM | 180 M⁻¹ s⁻¹ |  |  |  |  |
